# Measurements: US20260317356A1, “SMALL MOLECULE MODULATORS OF OGG1” (AZKARRA THERAPEUTICS, INC., priority 2023, published 2026)
# Molecular target: hOGG1 (Homo sapiens, UniProt O15527)
# Assay: Biochemical fluorescence assay to measure enzymatic activity of hOGG1 (OGG1/APEX IC50)
# Parameters: Protein His-hOGG1 (12-323) was prepared; His (N); host or cells: E. coli
# Details: 1 nM OGG1+2 nM APEX+6 nM dsDNA (8-oxo-dG substrate); pH 7.5; RT 40 min; read-out: OGG1/APEX IC50
# Method: Biological Example 1: Biochemical Assay to Measure Enzymatic Activity of hOGG1 (OGG1/APEX IC50)
# The reported fluorescence-based assay (Donley et al ACS Chem Biol 2015; 10 (10), 2334-2343) was modified to include hAPE1/APEX1 protein. The oligonucleotide substrate with 8-oxo-dG lesion at X was prepared (LGC Biosearch, Petaluma, CA):
# Protein His-hOGG1 (12-323) was prepared by Chempartner Corporation via E. coliexpression and purification by Ni-NTA and S200 column to afford 95% purity by SDS-PAGE and SEC-HPLC analysis and hAPE1/APEX1 was purchased (SinoBiological). The assay was run in 384-well plates following the general procedure: (1) compound dilution; (2) addition of hOGG1/APEX1 to compound wells; (3) addition of DNA substrate to compound wells; (4) read Ex520/Em600 (TAMRA) fluorescence signal after 40 minutes; (5) calculate % inhibition/compound concentration; (6) calculate dose-response curve and IC50 value.
# • (1) 20 mM of compound solution was prepared in DMSO; • (2) Compounds were diluted to 10 mM in DMSO in ECHO Source plate (Labcyte PP-0200), by mixing […] DMSO; • (3) 4× dilution of compounds, for 10 points, by mixing […] DMSO; and • (4) Dispensed 150 nL compounds to assay plate (Corning 3573) in column 3-22. Dispensed 150 nL DMSO to Min and Max control wells in column 1-2 and column 23-24.
# • (1) Assay buffer was prepared (20 mM Tris pH 7.5, 100 mM KCl, 0.1% BSA, 0.01% Tween). • (2) […] buffer was added to Min control wells (Column 1-2). • (3) Enzyme was diluted to 2× with buffer (2 nM OGG1+4 nM APEX1). Dispensed […] (except Min control wells). Shake at 500 rpm at RT for 20 min. • (4) DNA substrate diluted to 2× with buffer (12 nM). Dispensed […]. Final concentration: 1 nM OGG1+2 nM APEX+6 nM dsDNA. Shake at RT for 40 min. • (5) Ex520/Em600 (TAMRA) was read.
# • (1) Calculated respective mean of Max and Min control wells. • (2) Converted data to percentage inhibition.
# Inhibition (%)=(Max mean−value)/(Max mean−Min mean)×100% • (3) Calculated sigmoidal curve (3-parameter) and IC50 (using GraphPad Prism software).
# hOGG1, sequence (O15527 12-323): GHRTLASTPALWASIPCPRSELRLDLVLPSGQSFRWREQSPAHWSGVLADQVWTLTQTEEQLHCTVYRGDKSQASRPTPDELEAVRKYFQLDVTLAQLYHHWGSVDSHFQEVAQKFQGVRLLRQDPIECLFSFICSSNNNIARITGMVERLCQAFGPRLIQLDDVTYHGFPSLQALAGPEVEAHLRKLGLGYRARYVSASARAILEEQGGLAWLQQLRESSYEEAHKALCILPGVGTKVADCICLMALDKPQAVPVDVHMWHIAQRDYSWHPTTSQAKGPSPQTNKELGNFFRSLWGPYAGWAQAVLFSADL
row,IC50 [nM],SMILES
1,1000 to 10000,"COc1cccc(NC(=O)[C@H]2CC[C@@H](N3Cc4c(C)cccc4C3=O)CC2)n1 [Example 233, (1s,4s)-N-(6-Methoxypyridin-2-yl)-4-(4-methyl-1-oxoisoindolin-2-yl)cyclohexanecarboxamide]"
2,100 to 1000,"COc1cc(NC(=O)[C@H]2CC[C@@H](N3Cc4c(C)cccc4C3=O)CC2)ccc1C(F)(F)F [Example 258, (1s,4s)-N-(3-Methoxy-4-(trifluoromethyl)phenyl)-4-(4-methyl-1-oxoisoindolin-2-yl)cyclohexanecarboxamide]"
3,> 10000,"Cc1cccc2c1CN([C@H]1CC[C@@H](C(=O)Nc3cccc(=O)[nH]3)CC1)C2=O [Example 248, (1s,4s)-4-(4-Methyl-1-oxoisoindolin-2-yl)-N-(6-oxo-1,6-dihydropyridin-2-yl)cyclohexanecarboxamide]"
4,100 to 1000,"Cc1cc(NCCN(C)C)cc2c1CN([C@H]1CC[C@@H](C(=O)Nc3nc4ccccc4s3)CC1)C2=O [Example 129, (1s,4s)-N-(Benzo[d]thiazol-2-yl)-4-(6-((2-(dimethylamino)ethyl)amino)-4-methyl-1-oxoisoindolin-2-yl)cyclohexane-1-carboxamide]"
5,> 10000,"COc1cc(NC(=O)[C@H]2CC[C@@H](n3oc4c(Br)cccc4c3=O)CC2)ccc1C [Example 184, (1s,4s)-4-(7-Bromo-3-oxobenzo[d]isoxazol-2(3H)-yl)-N-(3-methoxy-4-methylphenyl)cyclohexanecarboxamide]"
6,100 to 1000,"COc1cc(NC(=O)[C@H]2CC[C@@H](N3Cc4c(C)cccc4OC3=O)CC2)ccc1C [Example 115, (1s,4s)-N-(3-methoxy-4-methylphenyl)-4-(5-methyl-2-oxo-2H-benzo[e][1,3]oxazin-3(4H)-yl)cyclohexane-1-carboxamide]"
7,1000 to 10000,"CCc1ccc(NC(=O)[C@H]2CC[C@@H](N3Cc4c(C)cccc4C3=O)CC2)cc1C [Example 127, (1s,4s)-N-(4-Ethyl-3-methylphenyl)-4-(4-methyl-1-oxoisoindolin-2-yl)cyclohexane-1-carboxamide]"
8,1000 to 10000,"Cc1cccc2c1CN([C@H]1CC[C@@H](C(=O)Nc3ccc4nc[nH]c4c3)CC1)C(=O)N2 [Example 109, (1s,4s)-N-(1H-benzo[d]imidazol-6-yl)-4-(5-methyl-2-oxo-1,2-dihydroquinazolin-3(4H)-yl)cyclohexanecarboxamide]"
9,100 to 1000,"Cc1cccc2c1CN([C@H]1CC[C@@H](C(=O)Nc3ccc(Cl)c(Cl)c3)CC1)C2=O [Example 237, (1s,4s)-N-(3,4-Dichlorophenyl)-4-(4-methyl-1-oxoisoindolin-2-yl)cyclohexanecarboxamide]"
10,> 10000,"Cc1ccc(NC(=O)[C@H]2CC[C@@H](N3Cc4c(C)cccc4C3=O)CC2)cc1C1COC1 [Example 125, (1s,4s)-4-(4-Methyl-1-oxoisoindolin-2-yl)-N-(4-methyl-3-(oxetan-3-yl)phenyl)cyclohexane-1-carboxamide]"
11,1000 to 10000,"COc1cc(NC(=O)[C@H]2CC[C@@H](N3Cc4c(N)cccc4C3=O)CC2)ccc1C [Example 154, (1s,4s)-4-(4-Amino-1-oxoisoindolin-2-yl)-N-(3-methoxy-4-methylphenyl)cyclohexanecarboxamide]"
12,1000 to 10000,"COc1cc(NC(=O)[C@H]2CC[C@@H](N3Cc4c(cccc4C(F)(F)F)C3=O)CC2)ccc1C [Example 147, (1s,4s)-N-(3-Methoxy-4-methylphenyl)-4-(1-oxo-4-(trifluoromethyl)isoindolin-2-yl)cyclohexanecarboxamide]"
13,1000 to 10000,"Cc1cccc2c1CN([C@H]1CC[C@@H](C(=O)Nc3ccc4cc[nH]c4c3)CC1)C2=O [Example 276, (1s,4s)-N-(1H-indol-6-yl)-4-(4-methyl-1-oxoisoindolin-2-yl)cyclohexanecarboxamide]"
14,100 to 1000,"C=Cc1cccc2c1CN([C@H]1CC[C@@H](C(=O)Nc3ccc(C)c(OC)c3)CC1)C2=O [Example 155, (1s,4s)-N-(3-Methoxy-4-methylphenyl)-4-(1-oxo-4-vinylisoindolin-2-yl)cyclohexanecarboxamide]"
15,100 to 1000,"COc1cc(NC(=O)[C@H]2CC[C@@H](N3C(=O)c4c(C)ccc(C)c4C3=O)CC2)ccc1C [Example 253, (1s,4s)-4-(4,7-Dimethyl-1,3-dioxoisoindolin-2-yl)-N-(3-methoxy-4-methylphenyl)cyclohexanecarboxamide]"
16,1000 to 10000,"COc1cc(NC(=O)[C@H]2CC[C@@H](N3Cc4c(Br)cc(NC(C)C(C)O)cc4C3=O)CC2)ccc1C (stereo partly shown) [Example 178, (1s,4s)-4-(4-Bromo-6-(3-hydroxybutan-2-ylamino)-1-oxoisoindolin-2-yl)-N-(3-methoxy-4-methylphenyl)cyclohexanecarboxamide]"
17,< 100,"COc1cc(NC(=O)[C@H]2CC[C@@H](N3Cc4c(C)ccc(OCCN(C)C)c4NC3=O)CC2)ccc1C [Example 21, (1s,4s)-4-(8-(2-(Dimethylamino)ethoxy)-5-methyl-2-oxo-1,2-dihydroquinazolin-3(4H)-yl)-N-(3-methoxy-4-methylphenyl)cyclohexanecarboxamide]"
18,100 to 1000,"CCc1ccc(NC(=O)[C@H]2CC[C@@H](N3Cc4c(C)cccc4NC3=O)CC2)cc1OC [Example 95, (1s,4s)-N-(4-ethyl-3-methoxyphenyl)-4-(5-methyl-2-oxo-1,2-dihydroquinazolin-3(4H)-yl)cyclohexanecarboxamide]"
19,> 10000,"CCOC(=O)c1cccc2c1CN([C@H]1CC[C@@H](C(=O)Nc3ccc(C)c(OC)c3)CC1)C2=O [Example 169, Ethyl 2-((1s,4s)-4-(3-methoxy-4-methylphenylcarbamoyl)cyclohexyl)-1-oxoisoindoline-4-carboxylate]"
20,1000 to 10000,"Cc1cccc2c1CN([C@H]1CC[C@@H](C(=O)Nc3ccc4ncccc4c3)CC1)C2=O [Example 228, (1s,4s)-4-(4-Methyl-1-oxoisoindolin-2-yl)-N-(quinolin-6-yl)cyclohexanecarboxamide]"
21,1000 to 10000,"COc1cc(NC(=O)[C@H]2CC[C@@H](N3Cc4c(cccc4C4CC4)C3=O)CC2)ccc1C [Example 151, (1s,4s)-4-(4-Cyclopropyl-1-oxoisoindolin-2-yl)-N-(3-methoxy-4-methylphenyl)cyclohexanecarboxamide]"
22,1000 to 10000,"COc1cc(NC(=O)[C@H]2CC[C@@H](N3Cc4c(ccc(OCCN5CCOCC5)c4C)NC3=O)CC2)ccc1C [Example 50, (1s,4s)-N-(3-Methoxy-4-methylphenyl)-4-(5-methyl-6-(2-morpholinoethoxy)-2-oxo-1,2-dihydroquinazolin-3(4H)-yl)cyclohexanecarboxamide]"
23,100 to 1000,"COc1cc(NC(=O)[C@H]2CC[C@@H](N3Cc4c(C)cc(O)cc4OC3=O)CC2)ccc1C [Example 116, (1s,4s)-4-(7-hydroxy-5-methyl-2-oxo-2H-benzo[e][1,3]oxazin-3(4H)-yl)-N-(3-methoxy-4-methylphenyl)cyclohexane-1-carboxamide]"
24,100 to 1000,"C=Cc1ccc(NC(=O)[C@H]2CC[C@@H](N3Cc4c(C)cccc4C3=O)CC2)cc1OC [Example 122, (1s,4s)-N-(3-Methoxy-4-vinylphenyl)-4-(4-methyl-1-oxoisoindolin-2-yl)cyclohexane-1-carboxamide]"
25,< 100,"CNCCOc1cc(C)c2c(c1)C(=O)N([C@H]1CC[C@@H](C(=O)Nc3ccc(C)c(OC)c3)CC1)C2 [Example 266, (1s,4s)-N-(3-Methoxy-4-methylphenyl)-4-(4-methyl-6-(2-(methylamino)ethoxy)-1-oxoisoindolin-2-yl)cyclohexanecarboxamide]"
